Legend:
Experiment in all cases: Test E preemergence
waterhemp = type: in vivo, Amaranthus rudis; details: for Waterhemp plant response rating: scale 0 to 100 (0 no effect, 100 complete control)
Text: (§1) Seeds of plant species selected from corn (Zea mays), soybean (Glycine max), velvetleaf (Abutilon theophrasti), lambsquarters (Chenopodium album), wild poinsettia (Euphorbia heterophylla), palmer pigweed (Amaranthus palmeri), waterhemp (common waterhemp, Amaranthus rudis), surinam grass (Brachiaria decumbens), large (Lg) crabgrass (Digitaria sanguinalis), Brazilian crabgrass (Digitaria horizontalis), fall panicum (Panicum dichotomiflorum), giant foxtail (Setaria faberii), green foxtail (Setaria viridis), goosegrass (Eleusine indica), johnsongrass (Sorghum halepense), ragweed (common ragweed, Ambrosia elatior), barnyardgrass (Echinochloa crus-galli), sandbur (southern sandbur, Cenchrus echinatus), arrowleaf sida (Sida rhombifolia), Italian ryegrass (Lolium multiflorum), dayflower (Virginia (VA) dayflower, Commelina virginica), field bindweed (Convolvulus arvensis), morningglory (Ipomoea coccinea), nightshade (eastern black nightshade, Solanum ptycanthum), kochia (Kochia scoparia), yellow nutsedge (Cyperus esculentus), cocklebur (common cocklebur, Xanthium strumarium), smartweed (ladysthumb smartweed, and hairy beggarticks (Bidens pilosa), were planted into a silt loam soil and treated preemergence with test chemicals formulated in a non-phytotoxic solvent mixture which included a surfactant.
(§2) At the same time, plants from these crop and weed species and also horseweed (Canada horseweed, Conyza canadensis), waterhemp_RES1, (ALS & Triazine resistant common waterhemp, Amaranthus rudis), and waterhemp_RES2, (ALS & HPPD resistant common waterhemp, Amaranthus rudis) were planted in pots containing Redi-Earth® planting medium (Scotts Company, 14111 Scottslawn Road, Marysville, Ohio 43041) comprising spaghnum peat moss, vermiculite, wetting agent and starter nutrients were treated with postemergence applications of test chemicals formulated in the same manner. Plants ranged in height from 2 to 18 cm for postemergence treatments (1- to 4-leaf stage). Treated plants and controls were maintained in a greenhouse for 14 to 21 days, after which time all species were compared to controls and visually evaluated. Plant response ratings, summarized in Table E, are based on a scale of 0 to 100 where 0 is no effect and 100 is complete control. A dash (-) response means no test result.

field bindweed = type: in vivo, Convolvulus arvensis; details: for Field Bindweed plant response rating: scale 0 to 100 (0 no effect, 100 complete control)
In short: (§3)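 Test chemicals formulated in a non-phytotoxic solvent mixture containing a surfactant were applied preemergence to seeds in silt loam soil or postemergence to plants at the 1- to 4-leaf stage in potting mix. After 14 to 21 days in a greenhouse, injury was visually rated against controls on a 0-100 scale (0 = no effect, 100 = complete control).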

nightshade = type: in vivo, Solanum ptycanthum; details: for Nightshade plant response rating: scale 0 to 100 (0 no effect, 100 complete control)
In short: as §3

hairy beggarticks = type: in vivo, Bidens pilosa; details: for Beggarticks plant response rating: scale 0 to 100 (0 no effect, 100 complete control)
Text: as §1, §2

surinam grass = type: in vivo, Brachiaria decumbens; details: for Surinam Grass plant response rating: scale 0 to 100 (0 no effect, 100 complete control)
Text: as §1, §2

giant foxtail = type: in vivo, Setaria faberii; details: for Foxtail, Giant plant response rating: scale 0 to 100 (0 no effect, 100 complete control)
In short: as §3

[1] = 125 g ai/ha, scale 0 to 100, 0 no effect, 100 complete control
[2] = 250 g ai/ha, scale 0 to 100, 0 no effect, 100 complete control
[3] = Preemergence, 62 g ai/ha, scale 0 to 100, 0 no effect, 100 complete control
[4] = preemergence, 125 g ai/ha, scale 0 to 100, 0 no effect, 100 complete control
[5] = preemergence, 250 g ai/ha, scale 0 to 100, 0 no effect, 100 complete control
[6] = 8 g ai/ha, scale 0 to 100, 0 is no effect, 100 is complete control

SMILES	Waterhemp plant response rating (waterhemp; 31 g ai/ha)	Waterhemp plant response rating (waterhemp; 62 g ai/ha)	Plant response rating, Waterhemp (waterhemp; [1])	Field Bindweed plant response rating (field bindweed; 16 g ai/ha)	Field Bindweed plant response rating (field bindweed; 31 g ai/ha)	Field Bindweed plant response rating (field bindweed; 62 g ai/ha)	Plant response rating, Field Bindweed (field bindweed; [1])	Nightshade plant response rating (nightshade; 31 g ai/ha)	Nightshade plant response rating (nightshade; 62 g ai/ha)	Plant response rating, Nightshade (nightshade; [1])	Beggarticks plant response rating (hairy beggarticks; 16 g ai/ha, preemergence)	Beggarticks plant response rating (hairy beggarticks; 31 g ai/ha, preemergence)	Plant response rating, Beggarticks (hairy beggarticks; [4])	Surinam Grass plant response rating (surinam grass; 31 g ai/ha)	Surinam Grass plant response rating (surinam grass; 62 g ai/ha)	Plant response rating, Surinam Grass (surinam grass; [1])	Foxtail, Giant plant response rating (giant foxtail; 16 g ai/ha)	Foxtail, Giant plant response rating (giant foxtail; 31 g ai/ha)	Foxtail, Giant plant response rating (giant foxtail; 62 g ai/ha)	Plant response rating, Foxtail, Giant (giant foxtail; [1])	other results
FC(F)(F)c1cnn(-c2ccccc2Oc2ncc(Cl)cn2)c1 [Compound 16]	100	100	100	0	0	0	30	98	100	100	0	0	0	0	0	30	15	20	100	100	Waterhemp plant response rating (waterhemp; 16 g ai/ha): 100; Plant response rating, Waterhemp (waterhemp; [2]): 100; Plant response rating, Field Bindweed (field bindweed; [2]): 60; Nightshade plant response rating (nightshade; 16 g ai/ha): 0; Plant response rating, Nightshade (nightshade; [2]): 100; Plant response rating, Beggarticks (hairy beggarticks; [3]): 0; Plant response rating, Beggarticks (hairy beggarticks; [5]): 0; Surinam Grass plant response rating (surinam grass; 16 g ai/ha): 0; Plant response rating, Surinam Grass (surinam grass; [2]): 50; Plant response rating, Foxtail, Giant (giant foxtail; [2]): 100
N#Cc1cccc(Oc2ncc(F)cn2)c1-n1cc(Cl)cn1 [Compound 73]	100	100	100	0	15	50	75	80	90	98	5	5	50	0	5	20	0	20	50	95	Waterhemp plant response rating (waterhemp; 16 g ai/ha): 65; Plant response rating, Waterhemp (waterhemp; [2]): 100; Plant response rating, Field Bindweed (field bindweed; [2]): 85; Nightshade plant response rating (nightshade; 16 g ai/ha): 65; Plant response rating, Nightshade (nightshade; [2]): 100; Plant response rating, Beggarticks (hairy beggarticks; [3]): 20; Plant response rating, Beggarticks (hairy beggarticks; [5]): 75; Surinam Grass plant response rating (surinam grass; 16 g ai/ha): 0; Plant response rating, Surinam Grass (surinam grass; [2]): 35; Plant response rating, Foxtail, Giant (giant foxtail; [2]): 100
Fc1cccc(Oc2ncc(Cl)cn2)c1-n1cc(I)cn1 [Compound 179]	–	90	98	0	–	0	30	–	80	95	0	–	0	–	0	0	0	–	65	100	Plant response rating, Waterhemp (waterhemp; [6]): 0; Plant response rating, Field Bindweed (field bindweed; [6]): 0; Plant response rating, Nightshade (nightshade; [6]): 0; Plant response rating, Beggarticks (hairy beggarticks; 8 g ai/ha, preemergence, scale 0 to 100, 0 is no effect, 100 is complete control): 0; Beggarticks plant response rating (hairy beggarticks; 62 g ai/ha, preemergence): 0; Plant response rating, Surinam Grass (surinam grass; [6]): 0; Plant response rating, Foxtail, Giant (giant foxtail; [6]): 0
N#Cc1cnn(-c2c(C#N)cccc2Oc2ncc(F)cn2)c1 [Compound 111]	65	80	100	15	15	60	80	50	80	95	20	30	80	0	0	25	0	0	70	100	Waterhemp plant response rating (waterhemp; 16 g ai/ha): 0; Nightshade plant response rating (nightshade; 16 g ai/ha): 65; Plant response rating, Beggarticks (hairy beggarticks; [3]): 60; Surinam Grass plant response rating (surinam grass; 16 g ai/ha): 0
FC(F)(F)c1cnn(-c2c(Cl)cccc2Oc2ncc(Cl)cn2)c1 [Compound 167]	98	98	100	0	0	0	10	98	100	100	0	0	0	0	0	0	0	0	100	100	Beggarticks plant response rating (hairy beggarticks; 62 g ai/ha, preemergence): 0
